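1) Cells in 96-well plates. 2) Compound, 48 h, 5 concentrations. 3) Linear interpolation between surrounding doses. 4) Unreached endpoint = highest concentration. The concentration for 50% growth inhibition is given as GI50.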 Activity calls are given as the source filed them. Cut-off read from the data, not from the text of the source: active = GI50 up to about 1.1 µM and inactive = higher.
Legend:
Test in all cases: inhibition of tumour cell growth, NCI panel, 48 h
786-0 = tested on: 786-0
A498 = tested on: A498
A549 = tested on: A549
ACHN = tested on: ACHN
BT-549 = tested on: BT-549
CCRF-CEM = tested on: CCRF-CEM
COLO 205 = tested on: COLO 205
DU-145 = tested on: DU-145
EKVX = tested on: EKVX
HCC 2998 = tested on: HCC 2998
HCT-15 = tested on: HCT-15
HL-60 = tested on: HL-60
HOP-62 = tested on: HOP-62
HT-29 = tested on: HT-29
Hs-578T = tested on: Hs-578T
IGROV-1 = tested on: IGROV-1
K562 = tested on: K562
KM12 = tested on: KM12
LOX IMVI = tested on: LOX IMVI
M14 = tested on: M14
MCF7 = tested on: MCF7
MDA-MB-231 = tested on: MDA-MB-231
MDA-MB-435 = tested on: MDA-MB-435
MDA-N = tested on: MDA-N
MOLT-4 = tested on: MOLT-4
Malme-3M = tested on: Malme-3M
NCI-H226 = tested on: NCI-H226
NCI-H23 = tested on: NCI-H23
NCI-H460 = tested on: NCI-H460
NCI-H522 = tested on: NCI-H522
NCI/ADR-RES = tested on: NCI/ADR-RES
OVCAR-3 = tested on: OVCAR-3
OVCAR-4 = tested on: OVCAR-4
OVCAR-5 = tested on: OVCAR-5
OVCAR-8 = tested on: OVCAR-8
PC-3 = tested on: PC-3
RPMI-8226 = tested on: RPMI-8226
RXF 393 = tested on: RXF 393
SF-268 = tested on: SF-268
SF-295 = tested on: SF-295
SF-539 = tested on: SF-539
SK-MEL-28 = tested on: SK-MEL-28
SK-MEL-2 = tested on: SK-MEL-2
SK-MEL-5 = tested on: SK-MEL-5
SK-OV-3 = tested on: SK-OV-3
SN12C = tested on: SN12C
SNB-19 = tested on: SNB-19
SNB-75 = tested on: SNB-75
SR = tested on: SR
SW-620 = tested on: SW-620
T47D = tested on: T47D
TK-10 = tested on: TK-10
U-251 = tested on: U-251
UACC-62 = tested on: UACC-62
UO-31 = tested on: UO-31
CAKI-1 = tested on: CAKI-1
HCT-116 = tested on: HCT-116
HOP-92 = tested on: HOP-92
UACC-257 = tested on: UACC-257

O=C1NC2(CCCCC2)N=C2C(Cl)CCCC12Cl (configuration not stated)
GI50 (786-0): > 100 µM (inactive) | GI50 (A498): > 100 µM (inactive) | GI50 (A549): 0.0535 µM (active) | GI50 (ACHN): > 100 µM (inactive) | GI50 (BT-549): > 100 µM (inactive) | GI50 (CCRF-CEM): > 100 µM (inactive) | GI50 (COLO 205): > 100 µM (inactive) | GI50 (DU-145): > 100 µM (inactive) | GI50 (EKVX): > 100 µM (inactive) | GI50 (HCC 2998): > 100 µM (inactive) | GI50 (HCT-15): > 100 µM | GI50 (HL-60): > 100 µM (inactive) | GI50 (HOP-62): > 100 µM (inactive) | GI50 (HT-29): > 100 µM (inactive) | GI50 (Hs-578T): > 100 µM (inactive) | GI50 (IGROV-1): > 100 µM (inactive) | GI50 (K562): > 100 µM (inactive) | GI50 (KM12): > 100 µM (inactive) | GI50 (LOX IMVI): > 100 µM (inactive) | GI50 (M14): > 100 µM (inactive) | GI50 (MCF7): > 100 µM (inactive) | GI50 (MDA-MB-231): > 100 µM (inactive) | GI50 (MDA-MB-435): > 100 µM (inactive) | GI50 (MDA-N): > 100 µM (inactive) | GI50 (MOLT-4): > 100 µM (inactive) | GI50 (Malme-3M): > 100 µM (inactive) | GI50 (NCI-H226): > 100 µM (inactive) | GI50 (NCI-H23): > 100 µM (inactive) | GI50 (NCI-H460): > 100 µM (inactive) | GI50 (NCI-H522): > 100 µM (inactive) | GI50 (NCI/ADR-RES): > 100 µM (inactive) | GI50 (OVCAR-3): > 100 µM (inactive) | GI50 (OVCAR-4): > 100 µM (inactive) | GI50 (OVCAR-5): > 100 µM (inactive) | GI50 (OVCAR-8): > 100 µM (inactive) | GI50 (PC-3): > 100 µM (inactive) | GI50 (RPMI-8226): > 100 µM (inactive) | GI50 (RXF 393): > 100 µM (inactive) | GI50 (SF-268): > 100 µM (inactive) | GI50 (SF-295): > 100 µM (inactive) | GI50 (SF-539): > 100 µM (inactive) | GI50 (SK-MEL-28): > 100 µM (inactive) | GI50 (SK-MEL-2): > 100 µM (inactive) | GI50 (SK-MEL-5): > 100 µM (inactive) | GI50 (SK-OV-3): > 100 µM (inactive) | GI50 (SN12C): > 100 µM (inactive) | GI50 (SNB-19): > 100 µM (inactive) | GI50 (SNB-75): > 100 µM (inactive) | GI50 (SR): > 100 µM (inactive) | GI50 (SW-620): > 100 µM (inactive) | GI50 (T47D): > 100 µM (inactive) | GI50 (TK-10): > 100 µM (inactive) | GI50 (U-251): > 100 µM (inactive) | GI50 (UACC-62): > 100 µM (inactive) | GI50 (UO-31): > 100 µM (inactive)

O=C(CCCn1ccnc1[N+](=O)[O-])NCCn1cncc1[N+](=O)[O-]
GI50 (786-0): > 100 µM (inactive) | GI50 (A498): > 100 µM (inactive) | GI50 (A549): > 100 µM (inactive) | GI50 (ACHN): > 100 µM (inactive) | GI50 (BT-549): > 100 µM (inactive) | GI50 (CAKI-1): > 100 µM (inactive) | GI50 (CCRF-CEM): > 100 µM (inactive) | GI50 (COLO 205): > 100 µM (inactive) | GI50 (DU-145): > 100 µM (inactive) | GI50 (EKVX): > 100 µM (inactive) | GI50 (HCT-116): > 100 µM (inactive) | GI50 (HCT-15): > 100 µM | GI50 (HL-60): > 100 µM (inactive) | GI50 (HOP-62): > 100 µM (inactive) | GI50 (HOP-92): > 100 µM (inactive) | GI50 (HT-29): > 100 µM (inactive) | GI50 (Hs-578T): > 100 µM (inactive) | GI50 (IGROV-1): > 100 µM (inactive) | GI50 (K562): > 100 µM (inactive) | GI50 (KM12): > 100 µM (inactive) | GI50 (LOX IMVI): > 100 µM (inactive) | GI50 (M14): > 100 µM (inactive) | GI50 (MCF7): > 100 µM (inactive) | GI50 (MDA-MB-231): > 100 µM (inactive) | GI50 (MDA-MB-435): > 100 µM (inactive) | GI50 (MDA-N): > 100 µM (inactive) | GI50 (MOLT-4): > 100 µM (inactive) | GI50 (Malme-3M): > 100 µM (inactive) | GI50 (NCI-H226): > 100 µM (inactive) | GI50 (NCI-H23): > 100 µM (inactive) | GI50 (NCI-H460): > 100 µM (inactive) | GI50 (NCI-H522): > 100 µM (inactive) | GI50 (NCI/ADR-RES): > 100 µM (inactive) | GI50 (OVCAR-3): > 100 µM (inactive) | GI50 (OVCAR-4): > 100 µM (inactive) | GI50 (OVCAR-5): > 100 µM (inactive) | GI50 (OVCAR-8): > 100 µM (inactive) | GI50 (PC-3): > 100 µM (inactive) | GI50 (RPMI-8226): > 100 µM (inactive) | GI50 (RXF 393): > 100 µM (inactive) | GI50 (SF-268): > 100 µM (inactive) | GI50 (SF-295): > 100 µM (inactive) | GI50 (SF-539): > 100 µM (inactive) | GI50 (SK-MEL-28): > 100 µM (inactive) | GI50 (SK-MEL-2): > 100 µM (inactive) | GI50 (SK-MEL-5): > 100 µM (inactive) | GI50 (SK-OV-3): > 100 µM (inactive) | GI50 (SN12C): > 100 µM (inactive) | GI50 (SNB-75): > 100 µM (inactive) | GI50 (SR): > 100 µM (inactive) | GI50 (SW-620): > 100 µM (inactive) | GI50 (T47D): > 100 µM (inactive) | GI50 (TK-10): > 100 µM (inactive) | GI50 (U-251): > 100 µM (inactive) | GI50 (UACC-257): > 100 µM (inactive) | GI50 (UACC-62): > 100 µM (inactive) | GI50 (UO-31): > 100 µM (inactive)
